Reference: PMC11672400, “Synthesis, Spectroscopic Characterization, Structural Analysis, and Evaluation of Anti-Tumor, Antimicrobial, and Antibiofilm Activities of Halogenoaminopyrazoles Derivatives” (Antibiotics, 2024)
In brackets after ≈: the same amount, converted by molar mass. Read-outs that look alike come from different tables or passages of the source.

How the values were obtained:
[1] = tested on: HEp-2 epithelial tumor cells; test: MTT cell viability / anti-tumor activity; conditions: for viability at 3.1 µg/mL / viability at 6.25 µg/mL / viability at 12.5 µg/mL / viability at 25 µg/mL / viability at 50 µg/mL / IC50: Homo sapiens; for viability at 3.1 µg/mL / viability at 6.25 µg/mL / viability at 12.5 µg/mL / viability at 25 µg/mL / viability at 50 µg/mL: read-out: Cell viability on Hep2 cells (%); for IC50: read-out: IC50 µg/mL on HEp-2 Cells 48 h, HEp-2 epithelial tumor cells, MTT, 48 h
Method: The cytotoxicity of the halogenoaminopyrazole derivatives 4a–f and 5a–e was tested on L929 mouse fibroblast cells, and their anti-tumor activity was evaluated on the human carcinoma epithelial cell line HEp-2. The experiments were performed in a concentration range of 3.1–50 μg/mL.
The MTT test was used, 3-(4,5-dimethylthiazol-2-yl)-2,5-diphenyl tetrazolium bromide), which is reduced to insoluble purple-blue formazan crystals precipitated by living cells. Cell viability assessed using the MTT assay reflects the activity of mitochondrial enzymes in treated cells compared to the control culture of untreated cells.
To assess the biocompatibility of the substances, a stable mouse fibroblast cell line, NCTC (clone 929), was grown in minimal essential medium (MEM) with 10% fetal bovine serum (FBS) and 2 mM L-glutamine, along with 100 U/mL penicillin, 100 µg/mL streptomycin, and 500 µg/mL neomycin. The concentration of the compounds used was 0.06 g/2 mL DMSO.
In cytotoxicity experiments, compound solutions were utilized at concentrations of 3.1 μg/mL, 6.25 μg/mL, 12.5 μg/mL, 25 μg/mL, and 50 μg/mL. The NCTC cell suspension was placed into 96-well culture plates with a concentration of 4 × 10^4 cells/mL and incubated at 37 °C for 24 h in a 5% CO2 humidified atmosphere. The compounds under study were placed in sets of three at varying concentrations ranging from 3.1 μg/mL to 50 μg/mL in every well, and the plates were then kept under standard conditions for 48 h. Cell viability was determined through the utilization of the MTT assay. Next, the MTT solution was removed, then isopropanol was added to solubilize the formazan crystals. The colored solution was then measured for absorbance at 570 nm using a Berthold Technologies, LB 940 microplate reader (Bad Wildbad, Germany). The outcomes were determined based on Formula (1) while considering that the recorded optical density is directly related to the number of viable cells in the cell culture being examined [35, 36]. % cell viability = (OD sample/OD control) × 100%(1)
For each tested compound, a graph representing percentage cell viability versus concentrations (in the range 3.1–50 µg/mL) was obtained. Then, the IC50 value was calculated by using ED50 plus V1.0 software.

[2] = MTT cell viability / cytotoxicity on normal fibroblasts; type: cell-based, mouse; conditions: mouse
Excerpt: (§1) Merck chemicals were utilized.
(§2) Untreated cells were used as control, considered 100% viable cells.

[3] = tested on: NCTC (clone 929) mouse fibroblast cells; test: as above; type: cell-based; conditions: Mus musculus, NCTC clone 929; NCTC normal fibroblasts, MTT, 48 h
Excerpt: as §1, §2

[4] = tested on: Escherichia coli ATCC25922; test: MIC by serial microdilution in liquid medium; type: cell-based; conditions: 24 h, 37 °C; for MIC: Escherichia coli, ATCC25922, read-out: Minimum inhibitory concentration, Escherichia coli ATCC25922
Method: (§3) The minimum inhibitory concentrations (MIC) were determined by the serial microdilution method in a liquid medium (Tryptone Soy Broth), on 96-well plates. Serial binary dilutions of the compound stock solution (10 mg/mL in DMSO) were carried out in 90 µL of culture medium and 10 µL of 10^6 CFU/mL (Colony Forming Units) microbial suspension. Each test included a positive control (wells with culture medium and microbial suspension) and a negative control for medium sterility. After incubation at 37 °C for 24 h the plates were visually examined, and optical density was measured at 620 nm. […] The MIC value (µg/mL) for the chemical compound was determined by the concentration in the final well without bacterial growth. All experiments were performed in triplicate.

[5] = tested on: Pseudomonas aeruginosa ATCC27853; test: MIC by serial microdilution in liquid medium; type: cell-based; conditions: 24 h, 37 °C; for MIC: Pseudomonas aeruginosa, ATCC27853, read-out: Minimum inhibitory concentration, Pseudomonas aeruginosa ATCC27853
Method: as §3

[6] = tested on: Staphylococcus aureus ATCC25923; test: MIC by serial microdilution in liquid medium; type: cell-based; conditions: 24 h, 37 °C; for MIC: Staphylococcus aureus, ATCC25923, read-out: Minimum inhibitory concentration, Staphylococcus aureus ATCC25923
Method: as §3

[7] = tested on: Enterococcus faecalis ATCC29212; test: MIC by serial microdilution in liquid medium; type: cell-based; conditions: 24 h, 37 °C; for MIC: Enterococcus faecalis, ATCC29212, read-out: Minimum inhibitory concentration, Enterococcus faecalis ATCC29212
Method: as §3

[8] = tested on: Pseudomonas aeruginosa ATCC27853; test: Antibiofilm assay (crystal violet), MBIC; type: cell-based; conditions: 37 °C; for Minimum biofilm inhibition concentration (MBIC), Pseudomonas aeruginosa ATCC27853: 24 h; for minimal effective concentration: Pseudomonas aeruginosa, ATCC27853, 24 h, read-out: Minimum biofilm inhibition concentration (MBIC), Pseudomonas aeruginosa ATCC27853
Method: (§4) Microorganisms were grown in 96-well plates filled with nutrient broth along with test substances, followed by incubation at 37 °C for 24 h. Plates were cleaned and rinsed thrice using SPW solution (sterile physiological water). After that, the attached cells were treated with 110 μL of methanol for 5 min, and then the methanol was removed by turning it upside down. […] Once stained, the solution was removed, and the plates were washed with running tap water. […] The antimicrobial/antibiofilm activity of the compounds was evaluated against two antibiotics, commercial formulations of metronidazole and nitrofurantoin.

[9] = tested on: Staphylococcus aureus ATCC25923; test: Antibiofilm assay (crystal violet), MBIC; type: cell-based; conditions: 24 h, 37 °C; for minimal effective concentration: Staphylococcus aureus, ATCC25923, read-out: Minimum biofilm inhibition concentration (MBIC), Staphylococcus aureus ATCC25923
Method: as §4

[10] = tested on: Escherichia coli ATCC25922; test: Qualitative evaluation of antimicrobial activity (inhibition zone, spot on agar); type: cell-based; design: key: (+) inhibited bacterial growth; (-) did not inhibit bacterial growth; conditions: 0.06 g/2 mL DMSO, 5 µL spot
Method: (§5) For testing the antimicrobial/antibiofilm activity, the concentration of the studied compounds was identical to 0.06 g/2 mL DMSO. 0.5 Standard McFarland suspension was used, which was inoculated onto Mueller Hinton agar plates, (Remel, Lenexa, KS, USA), 5 µL of each compound was spotted and incubated overnight at 37 °C. Antimicrobial activity was observed as zones of inhibition formed around the spot.

[11] = tested on: Pseudomonas aeruginosa ATCC27853; test: as above; type: cell-based; design: key: (+) inhibited bacterial growth; (-) did not inhibit bacterial growth; conditions: 0.06 g/2 mL DMSO, 5 µL spot
Method: as §5

[12] = tested on: Staphylococcus aureus ATCC25923; test: as above; type: cell-based; design: key: (+) inhibited bacterial growth; (-) did not inhibit bacterial growth; conditions: 0.06 g/2 mL DMSO, 5 µL spot
Method: as §5

[13] = tested on: Enterococcus faecalis ATCC29212; test: as above; type: cell-based; design: key: (+) inhibited bacterial growth; (-) did not inhibit bacterial growth; conditions: 0.06 g/2 mL DMSO, 5 µL spot
Method: as §5

[14] = tested on: Escherichia coli ATCC25922; test: Antibiofilm assay (crystal violet), MBIC; type: cell-based; conditions: 37 °C
Method: as §4

[15] = NCTC clone 929 (L929) mouse fibroblast cells
[16] = read-out: Cell viability on NCTC cells (%)

Row | Compound | melting point [°C] | viability at 3.1 µg/mL ([1]; HEp-2, 24 h) [%] | viability at 6.25 µg/mL ([1]; HEp-2, 24 h) [%] | viability at 12.5 µg/mL ([1]; HEp-2, 24 h) [%] | viability at 25 µg/mL ([1]; HEp-2, 24 h) [%] | viability at 50 µg/mL ([1]; HEp-2, 24 h) [%] | viability at 3.1 µg/mL ([1]; HEp-2, 48 h) [%] | viability at 6.25 µg/mL ([1]; HEp-2, 48 h) [%] | viability at 12.5 µg/mL ([1]; HEp-2, 48 h) [%] | viability at 25 µg/mL ([1]; HEp-2, 48 h) [%] | viability at 50 µg/mL ([1]; HEp-2, 48 h) [%] | IC50 ([1]; HEp-2, 48 h) [µg/mL] | IC50 [3] [µg/mL] | Minimum inhibitory concentration, Escherichia coli ATCC25922 [4] [µg/mL] | MIC [4] [µg/mL] | MIC [5] [µg/mL] | Minimum inhibitory concentration, Staphylococcus aureus ATCC25923 [6] [µg/mL] | MIC [6] [µg/mL] | MIC [7] [µg/mL] | Minimum biofilm inhibition concentration (MBIC), Pseudomonas aeruginosa ATCC27853 [8] [µg/mL] | other results
1 | Cc1nn(CNc2ccc(Cl)cc2)c(C)c1[N+](=O)[O-] [4b, N-[(3,5-dimetyl-4-nitro-1H-pyrazol-1-yl)-methyl]-4-chloroaniline] | 99 to 100 | 116 ± 2.48 | 105 ± 2.91 | 100 ± 2.49 | 88.8 ± 1.65 | 65.6 ± 2.78 | 112.6 ± 1.03 | 104 ± 1.08 | 98 ± 1.42 | 79.5 ± 1.49 | 46.8 ± 3.35 | 47.3 ± 3.38 (≈ 169 µM) | 36.1 ± 1.23 (≈ 129 µM) | 460 ± 0.05 (≈ 1640 µM) | 460 (≈ 1640 µM) | 460 (≈ 1640 µM) | 460 ± 0.02 (≈ 1640 µM) | 460 (≈ 1640 µM) | 460 (≈ 1640 µM) | 460 ± 0.02 | viability at 24 h, 3.1 µg/mL [2, 15]: 100 ± 1.63%; viability at 48 h, 3.1 µg/mL [2, 15]: 95.08 ± 0.82%; viability at 24 h, 6.25 µg/mL [2, 15]: 101 ± 3.31%; viability at 48 h, 6.25 µg/mL [2, 15]: 93 ± 1.35%; viability at 24 h, 12.5 µg/mL [2, 15]: 98.6 ± 2.62%; viability at 48 h, 12.5 µg/mL [2, 15]: 89.7 ± 3.15%; viability at 24 h, 25 µg/mL [2, 15]: 96.3 ± 2.22%; viability at 48 h, 25 µg/mL [2, 15]: 61.9 ± 1.38%; viability at 24 h, 50 µg/mL [2, 15]: 64.9 ± 0.94%; viability at 48 h, 50 µg/mL [2, 15]: 31.6 ± 1.27%; Minimum inhibitory concentration, Pseudomonas aeruginosa ATCC27853 [5]: 460 ± 0.01 µg/mL (≈ 1640 µM); Minimum inhibitory concentration, Enterococcus faecalis ATCC29212 [7]: 460 ± 0.02 µg/mL (≈ 1640 µM); minimal effective concentration [8]: 460 µg/mL; Minimum biofilm inhibition concentration (MBIC), Staphylococcus aureus ATCC25923 [9]: 460 ± 0.01 µg/mL; minimal effective concentration [9]: 460 µg/mL; Qualitative antimicrobial activity, Escherichia coli ATCC25922 [10]: +; Qualitative antimicrobial activity, Pseudomonas aeruginosa ATCC27853 [11]: +; Qualitative antimicrobial activity, Staphylococcus aureus ATCC25923 [12]: +; Qualitative antimicrobial activity, Enterococcus faecalis ATCC29212 [13]: +
2 | C[C@@H]1CC[C@@]2(OC1)O[C@H]1C[C@H]3[C@@H]4CC=C5C[C@@H](O[C@@H]6O[C@H](CO)[C@@H](O[C@@H]7O[C@@H](C)[C@H](O)[C@@H](O)[C@H]7O)[C@H](O)[C@H]6O[C@@H]6O[C@@H](C)[C@H](O)[C@@H](O)[C@H]6O)CC[C@]5(C)[C@H]4CC[C@]3(C)[C@H]1[C@@H]2C [dioscin, reference compound] | – | 97.09 ± 0.43 | 76.7 ± 2.01 | 58.92 ± 0.3 | 13.9 ± 0.18 | 11.5 ± 0.14 | 95.99 ± 0.53 | 62 ± 1.78 | 38 ± 2.09 | 7.49 ± 1.32 | 7.27 ± 1.14 | – | 15.8 ± 2.19 (≈ 18.2 µM) | – | – | – | – | – | – | – | viability at 24 h, 3.1 µg/mL [2, 16]: 94.3 ± 2.49%; viability at 48 h, 3.1 µg/mL [2, 16]: 94.2 ± 1.66%; viability at 24 h, 6.25 µg/mL [2, 16]: 93 ± 3.24%; viability at 48 h, 6.25 µg/mL [2, 16]: 72.6 ± 1.67%; viability at 24 h, 12.5 µg/mL [2, 16]: 38.7 ± 2.55%; viability at 48 h, 12.5 µg/mL [2, 16]: 37 ± 2.55%; viability at 24 h, 25 µg/mL [2, 16]: 14.9 ± 2.63%; viability at 48 h, 25 µg/mL [2, 16]: 8.55 ± 1.26%; viability at 24 h, 50 µg/mL [2, 16]: 13.7 ± 2.06%; viability at 48 h, 50 µg/mL [2, 16]: 7.14 ± 1.28%
3 | Cc1nn(CN(Cn2nc(C)c([N+](=O)[O-])c2C)c2ccc(Cl)cc2)c(C)c1[N+](=O)[O-] [5b, N,N-bis-[(3,5-dimetyl-4-nitro-1H-pyrazol-1-yl)-methyl]-4-chloroaniline] | 132 to 134 | 105 ± 1.52 | 104 ± 2.25 | 102 ± 3.76 | 90.8 ± 2.84 | 65.3 ± 2.02 | 110 ± 1.25 | 94.7 ± 3.8 | 87.1 ± 0.92 | 74.8 ± 0.33 | 54.6 ± 1.17 | 26.6 to 47.3 (≈ 61.3 to 109 µM) | 29.8 ± 0.32 (≈ 68.7 µM) | 460 ± 0.27 (≈ 1060 µM) | 460 (≈ 1060 µM) | 460 ± 0.58 (≈ 1060 µM) | 460 ± 0.01 (≈ 1060 µM) | 460 (≈ 1060 µM) | 460 ± 0.54 (≈ 1060 µM) | 460 ± 0.51 | IC50 µg/mL on HEp-2 Cells 48 h ([1]; HEp-2 epithelial tumor cells, MTT, 48 h): >50 µg/mL; viability at 24 h, 3.1 µg/mL [2, 16]: 99.1 ± 3.42%; viability at 48 h, 3.1 µg/mL [2, 16]: 100 ± 2.53%; viability at 24 h, 6.25 µg/mL [2, 16]: 103 ± 3.06%; viability at 48 h, 6.25 µg/mL [2, 16]: 94.9 ± 2.14%; viability at 24 h, 12.5 µg/mL [2, 16]: 98.8 ± 3.47%; viability at 48 h, 12.5 µg/mL [2, 16]: 84 ± 3.77%; viability at 24 h, 25 µg/mL [2, 16]: 70 ± 2.51%; viability at 48 h, 25 µg/mL [2, 16]: 55.2 ± 1.6%; viability at 24 h, 50 µg/mL [2, 16]: 48.6 ± 1.35%; viability at 48 h, 50 µg/mL [2, 16]: 28.1 ± 0.35%; Minimum biofilm inhibition concentration (MBIC), Escherichia coli ATCC25922 ([14]; 24 h): 460 ± 0.03 µg/mL; minimal effective concentration ([14]; Escherichia coli, ATCC25922, 24 h, read-out: Minimum biofilm inhibition concentration (MBIC), Escherichia coli ATCC25922): 460 µg/mL; minimal effective concentration [8]: 460 µg/mL; Minimum biofilm inhibition concentration (MBIC), Staphylococcus aureus ATCC25923 [9]: 460 ± 0.01 µg/mL; minimal effective concentration [9]: 460 µg/mL; Qualitative antimicrobial activity, Escherichia coli ATCC25922 [10]: +; Qualitative antimicrobial activity, Pseudomonas aeruginosa ATCC27853 [11]: +; Qualitative antimicrobial activity, Staphylococcus aureus ATCC25923 [12]: +; Qualitative antimicrobial activity, Enterococcus faecalis ATCC29212 [13]: +
